One experiment addresses SMARCA2 (Homo sapiens (Human), UniProt P51531). Description: SMARCA2 HiBiT degradation assay in HeLa cells. The format is cell-based. As to conditions: 18 hours; for DC50: read-out: DC50 (SM2-HeLa) SMARCA2 degradation potency; for Dmax: read-out: Dmax % (SM2-HeLa) maximum SMARCA2 degradation within the concentrations tested. A digest of the protocol: (§1)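 HeLa monoclonal lines carrying a heterozygous HiBiT knock-in on SMARCA2 or SMARCA4 were seeded at 2500 cells/well in EMEM with 10% FBS. After 18 h compound exposure at 37 °C, Nano-Glo HiBiT lytic detection ran 30-60 min at RT before the luminescence read. Values are from curve fits.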
On the technique in general: The HiBiT peptide binds its large partner to form an active luciferase.

A further experiment addresses SMARCA4 (Homo sapiens (Human), UniProt P51532). Kind of experiment: SMARCA4 HiBiT degradation assay in HeLa cells. Type of experiment: cell-based. As to conditions: 18 hours; for DC50: read-out: DC50 (SM4-HeLa) SMARCA4 degradation potency; for Dmax: HeLa, read-out: Dmax % (SM4-HeLa) maximum SMARCA4 degradation within the concentrations tested. A digest of the protocol: as §1

Data on 12 molecules can be found in patent publication US20240018158A1, “BRM TARGETING COMPOUNDS AND ASSOCIATED METHODS OF USE” (Prelude Therapeutics Incorporated, priority 2020, published 2024).

One may read the DC50 as the midpoint of the concentration-degradation curve.

Sequence of SMARCA2 (P51531 whole entry): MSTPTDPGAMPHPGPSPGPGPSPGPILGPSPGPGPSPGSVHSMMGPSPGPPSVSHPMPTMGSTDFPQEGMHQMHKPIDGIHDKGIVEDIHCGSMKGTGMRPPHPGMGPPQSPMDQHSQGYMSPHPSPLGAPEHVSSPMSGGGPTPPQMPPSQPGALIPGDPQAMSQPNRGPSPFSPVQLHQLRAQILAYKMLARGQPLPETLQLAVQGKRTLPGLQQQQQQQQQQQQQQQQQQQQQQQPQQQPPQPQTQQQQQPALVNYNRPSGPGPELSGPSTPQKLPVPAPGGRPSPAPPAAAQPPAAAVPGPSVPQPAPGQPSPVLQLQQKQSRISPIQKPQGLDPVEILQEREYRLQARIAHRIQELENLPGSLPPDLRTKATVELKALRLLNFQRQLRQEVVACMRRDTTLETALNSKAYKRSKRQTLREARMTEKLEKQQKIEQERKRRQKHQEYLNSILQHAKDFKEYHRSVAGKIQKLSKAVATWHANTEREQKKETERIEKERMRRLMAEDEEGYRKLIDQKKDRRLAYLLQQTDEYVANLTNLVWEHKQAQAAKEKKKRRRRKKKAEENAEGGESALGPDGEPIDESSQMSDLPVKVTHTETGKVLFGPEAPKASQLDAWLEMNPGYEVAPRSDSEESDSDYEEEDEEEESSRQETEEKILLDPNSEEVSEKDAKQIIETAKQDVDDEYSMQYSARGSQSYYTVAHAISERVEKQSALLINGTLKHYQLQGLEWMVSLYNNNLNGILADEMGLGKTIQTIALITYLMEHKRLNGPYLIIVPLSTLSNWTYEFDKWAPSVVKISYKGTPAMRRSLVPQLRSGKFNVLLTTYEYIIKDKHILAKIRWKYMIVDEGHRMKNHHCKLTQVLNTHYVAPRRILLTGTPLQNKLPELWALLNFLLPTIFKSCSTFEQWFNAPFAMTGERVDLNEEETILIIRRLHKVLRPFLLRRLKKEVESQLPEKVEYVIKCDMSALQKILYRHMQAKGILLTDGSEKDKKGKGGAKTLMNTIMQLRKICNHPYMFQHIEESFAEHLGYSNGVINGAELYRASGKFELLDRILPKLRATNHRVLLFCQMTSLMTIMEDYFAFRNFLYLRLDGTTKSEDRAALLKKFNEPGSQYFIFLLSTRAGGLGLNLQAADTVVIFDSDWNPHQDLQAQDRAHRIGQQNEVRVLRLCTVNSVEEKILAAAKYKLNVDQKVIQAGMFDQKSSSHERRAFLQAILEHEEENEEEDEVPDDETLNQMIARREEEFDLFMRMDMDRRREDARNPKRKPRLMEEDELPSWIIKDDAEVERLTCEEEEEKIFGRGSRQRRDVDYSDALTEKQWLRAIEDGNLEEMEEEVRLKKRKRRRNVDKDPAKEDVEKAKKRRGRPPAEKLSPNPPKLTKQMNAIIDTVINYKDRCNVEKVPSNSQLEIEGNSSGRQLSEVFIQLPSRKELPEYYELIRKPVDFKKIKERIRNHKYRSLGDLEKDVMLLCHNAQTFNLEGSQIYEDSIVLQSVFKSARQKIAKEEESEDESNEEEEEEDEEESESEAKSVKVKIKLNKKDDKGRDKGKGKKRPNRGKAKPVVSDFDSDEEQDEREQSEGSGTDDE
Sequence of SMARCA4 (P51532 whole entry): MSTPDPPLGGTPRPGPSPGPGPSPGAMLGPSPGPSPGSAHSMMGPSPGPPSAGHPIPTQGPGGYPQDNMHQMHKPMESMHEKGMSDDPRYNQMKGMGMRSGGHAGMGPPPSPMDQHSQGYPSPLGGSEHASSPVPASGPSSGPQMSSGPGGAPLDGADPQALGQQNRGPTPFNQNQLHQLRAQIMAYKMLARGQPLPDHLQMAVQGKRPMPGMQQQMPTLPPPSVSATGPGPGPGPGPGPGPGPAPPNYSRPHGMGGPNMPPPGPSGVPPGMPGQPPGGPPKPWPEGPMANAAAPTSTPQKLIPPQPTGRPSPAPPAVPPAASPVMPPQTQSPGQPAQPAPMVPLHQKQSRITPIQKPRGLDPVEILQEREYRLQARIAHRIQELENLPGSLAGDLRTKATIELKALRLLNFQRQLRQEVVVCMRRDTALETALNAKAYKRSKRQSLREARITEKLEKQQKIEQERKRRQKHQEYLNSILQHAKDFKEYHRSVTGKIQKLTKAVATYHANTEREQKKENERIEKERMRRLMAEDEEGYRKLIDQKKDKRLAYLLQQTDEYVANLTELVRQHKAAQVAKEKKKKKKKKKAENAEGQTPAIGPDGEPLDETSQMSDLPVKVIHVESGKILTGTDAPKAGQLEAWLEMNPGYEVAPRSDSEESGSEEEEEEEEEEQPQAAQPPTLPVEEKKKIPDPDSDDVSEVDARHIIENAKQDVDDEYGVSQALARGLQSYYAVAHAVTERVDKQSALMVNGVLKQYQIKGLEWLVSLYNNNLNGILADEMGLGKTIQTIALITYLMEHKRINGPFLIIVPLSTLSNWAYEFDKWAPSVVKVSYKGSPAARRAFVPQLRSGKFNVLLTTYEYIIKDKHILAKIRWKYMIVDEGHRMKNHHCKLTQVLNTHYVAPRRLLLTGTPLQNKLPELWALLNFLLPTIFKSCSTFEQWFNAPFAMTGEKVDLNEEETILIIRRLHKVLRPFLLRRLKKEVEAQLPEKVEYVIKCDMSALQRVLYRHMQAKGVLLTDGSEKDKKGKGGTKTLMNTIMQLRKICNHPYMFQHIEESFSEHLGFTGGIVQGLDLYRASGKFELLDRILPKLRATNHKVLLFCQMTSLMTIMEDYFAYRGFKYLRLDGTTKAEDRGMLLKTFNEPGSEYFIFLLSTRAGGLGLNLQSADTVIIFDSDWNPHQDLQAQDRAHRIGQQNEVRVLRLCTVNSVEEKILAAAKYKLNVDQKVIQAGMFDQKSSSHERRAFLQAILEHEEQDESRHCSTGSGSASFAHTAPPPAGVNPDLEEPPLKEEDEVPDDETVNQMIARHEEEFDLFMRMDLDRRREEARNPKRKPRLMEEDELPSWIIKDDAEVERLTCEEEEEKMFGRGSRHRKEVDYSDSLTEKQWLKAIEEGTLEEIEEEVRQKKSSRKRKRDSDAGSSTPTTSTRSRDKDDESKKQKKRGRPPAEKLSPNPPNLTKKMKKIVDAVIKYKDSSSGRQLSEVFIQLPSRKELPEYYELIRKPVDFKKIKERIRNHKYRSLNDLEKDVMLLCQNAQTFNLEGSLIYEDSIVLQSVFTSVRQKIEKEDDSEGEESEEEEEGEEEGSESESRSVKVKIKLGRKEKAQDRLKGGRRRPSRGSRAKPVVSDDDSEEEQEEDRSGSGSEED

As to `CCC(CN1CCC(N2CCN3c4cc(-c5ccccc5O)nnc4NC[C@H]3C2)C1)Oc1cc(C(C(=O)N2C[C@H](O)C[C@H]2C(=O)N[C@@H](C)c2ccc(-c3scnc3C)cc2)C(C)C)on1` (stereo partly drawn) [Example 62, (2S,4R)-4-hydroxy-1-(2-(3-((1-(3-((S)-2-(2-hydroxyphenyl)-5,6,6a,7,9,10-hexahydro-8H-pyrazino[1′,2′:4,5]pyrazino[2,3-c]pyridazin-8-yl)pyrrolidin-1-yl)butan-2-yl)oxy)isoxazol-5-yl)-3-methylbutanoyl)-N-((S)-1-(4-(4-methylthiazol-5-yl)phenyl)ethyl)pyrrolidine-2-carboxamide], at SMARCA2, the “Dmax % (SM2-HeLa) maximum SMARCA2 degradation within the concentrations tested” value is “A/A (A = Dmax >75%)” and the DC50 is less than 100 nM. Moreover, on SMARCA4, the “Dmax % (SM4-HeLa) maximum SMARCA4 degradation within the concentrations tested” value is on record as “A/A (A = Dmax >75%)” and the DC50 was less than 100 nM.

Regarding `Cc1ncsc1-c1ccc([C@H](C)NC(=O)[C@@H]2C[C@@H](O)CN2C(=O)[C@@H](c2cc(OCCN3CCC(N4CCN5c6cc(-c7ccccc7O)nnc6NCC5(C)C4)CC3)no2)C(C)C)cc1` (stereo partly drawn) [Example 63, (2S,4R)-4-hydroxy-1-((2R)-2-(3-(2-(4-(2-(2-hydroxyphenyl)-6a-methyl-5,6,6a,7,9,10-hexahydro-8H-pyrazino[1′,2′:4,5]pyrazino[2,3-c]pyridazin-8-yl)piperidin-1-yl)ethoxy)isoxazol-5-yl)-3-methylbutanoyl)-N-((S)-1-(4-(4-methylthiazol-5-yl)phenyl)ethyl)pyrrolidine-2-carboxamide], on SMARCA2, the 50% degradation concentration (DC50) is less than 100 nM and the Dmax was more than 75%. For the same molecule, on SMARCA4, the DC50 is less than 100 nM and the Dmax was more than 75%.

In the case of `Cc1ncsc1-c1ccc([C@H](C)NC(=O)[C@@H]2C[C@@H](O)CN2C(=O)[C@@H](c2cc(O[C@@H](C)CN3CCC(N4CCN5c6cc(-c7ccccc7O)nnc6NCC5(C)C4)C3)no2)C(C)C)cc1` (stereo partly drawn) [Example 64, (2S,4R)-4-hydroxy-1-((2R)-2-(3-(((2S)-1-(3-(2-(2-hydroxyphenyl)-6a-methyl-5,6,6a,7,9,10-hexahydro-8H-pyrazino[1′,2′:4,5]pyrazino[2,3-c]pyridazin-8-yl)pyrrolidin-1-yl)propan-2-yl)oxy)isoxazol-5-yl)-3-methylbutanoyl)-N-((S)-1-(4-(4-methylthiazol-5-yl)phenyl)ethyl)pyrrolidine-2-carboxamide], on SMARCA2, the DC50 was less than 100 nM and the Dmax was more than 75%. For the same molecule, at SMARCA4, the half-maximal degradation concentration (DC50) is less than 100 nM and the Dmax is more than 75%.

Consider `Cc1ncsc1-c1ccc([C@H](C)NC(=O)[C@@H]2C[C@@H](O)CN2C(=O)[C@@H](c2cc(OC(C)CN3CCCC(CN4CCN5c6cc(-c7ccccc7O)nnc6NC[C@H]5C4)CC3)no2)C(C)C)cc1` (stereo partly drawn) [Example 68, (2S,4R)-4-hydroxy-1-((2R)-2-(3-((1-(4-(((S)-2-(2-hydroxyphenyl)-5,6,6a,7,9,10-hexahydro-8H-pyrazino[1′,2′:4,5]pyrazino[2,3-c]pyridazin-8-yl)methyl)azepan-1-yl)propan-2-yl)oxy)isoxazol-5-yl)-3-methylbutanoyl)-N-((S)-1-(4-(4-methylthiazol-5-yl)phenyl)ethyl)pyrrolidine-2-carboxamide], for which, at SMARCA2, the DC50 is less than 100 nM and the Dmax is more than 75%. Further, on SMARCA4, the DC50 is 100 to 1000 nM and the Dmax is more than 75%.

Consider `Cc1ncsc1-c1ccc([C@H](C)NC(=O)[C@@H]2C[C@@H](O)CN2C(=O)[C@@H](c2cc(OCCN3CCC(N4CCN5c6cc(-c7ccccc7O)nnc6NCC5(C)C4)C3)no2)C(C)C)cc1` (stereo partly drawn) [Example 71, (2S,4R)-4-hydroxy-1-((2R)-2-(3-(2-(3-(2-(2-hydroxyphenyl)-6a-methyl-5,6,6a,7,9,10-hexahydro-8H-pyrazino[1′,2′:4,5]pyrazino[2,3-c]pyridazin-8-yl)pyrrolidin-1-yl)ethoxy)isoxazol-5-yl)-3-methylbutanoyl)-N-((S)-1-(4-(4-methylthiazol-5-yl)phenyl)ethyl)pyrrolidine-2-carboxamide], for which the DC50 on SMARCA2 and on SMARCA4 was less than 100 nM each time. Also, the Dmax on SMARCA2 and on SMARCA4 was more than 75% in each case.

Consider `Cc1ncsc1-c1ccc([C@H](C)NC(=O)[C@@H]2C[C@@H](O)CN2C(=O)[C@@H](c2cc(OCCN3CCC(N4CCN5c6cc(-c7ccccc7O)nnc6NCC5(C)C4)C3)no2)C(C)C)cc1` (stereo partly drawn) [Example 72, (2S,4R)-4-hydroxy-1-((2R)-2-(3-(2-(3-(2-(2-hydroxyphenyl)-6a-methyl-5,6,6a,7,9,10-hexahydro-8H-pyrazino[1′,2′:4,5]pyrazino[2,3-c]pyridazin-8-yl)pyrrolidin-1-yl)ethoxy)isoxazol-5-yl)-3-methylbutanoyl)-N-((S)-1-(4-(4-methylthiazol-5-yl)phenyl)ethyl)pyrrolidine-2-carboxamide], for which the half-maximal degradation concentration (DC50) on SMARCA2 and on SMARCA4 was less than 100 nM in each case.

Turning to `Cc1ncsc1-c1ccc([C@H](C)NC(=O)[C@@H]2C[C@@H](O)CN2C(=O)[C@@H](c2cc(O[C@H](C)C(=O)N3CCC(N4CCN5c6cc(-c7ccccc7O)nnc6NC[C@H]5C4)CC3)no2)C(C)C)cc1` [Example 73, (2S,4R)-4-hydroxy-1-((R)-2-(3-(((R)-1-(4-((S)-2-(2-hydroxyphenyl)-5,6,6a,7,9,10-hexahydro-8H-pyrazino[1′,2′:4,5]pyrazino[2,3-c]pyridazin-8-yl)piperidin-1-yl)-1-oxopropan-2-yl)oxy)isoxazol-5-yl)-3-methylbutanoyl)-N-((S)-1-(4-(4-methylthiazol-5-yl)phenyl)ethyl)pyrrolidine-2-carboxamide], at SMARCA2, the DC50 is less than 100 nM and the Dmax is more than 75%. Moreover, on SMARCA4, the DC50 lay within 100 to 1000 nM and the Dmax fell in the range of 50 to 75%.

Regarding `Cc1ncsc1-c1ccc([C@H](C)NC(=O)[C@@H]2C[C@@H](O)CN2C(=O)[C@@H](c2cc(OCCN3CCC(N4CCN5c6cc(-c7ccccc7O)nnc6NC[C@H]5C4)CC3)no2)C(C)C)cc1` [Example 76, (2S,4R)-4-hydroxy-1-((R)-2-(3-(2-(4-((S)-2-(2-hydroxyphenyl)-5,6,6a,7,9,10-hexahydro-8H-pyrazino[1′,2′:4,5]pyrazino[2,3-c]pyridazin-8-yl)piperidin-1-yl)ethoxy)isoxazol-5-yl)-3-methylbutanoyl)-N-((S)-1-(4-(4-methylthiazol-5-yl)phenyl)ethyl)pyrrolidine-2-carboxamide], at SMARCA2, the DC50 is less than 100 nM and the Dmax is more than 75%. In addition, at SMARCA4, the DC50 was less than 100 nM and the Dmax was more than 75%.

Take `Cc1ncsc1-c1ccc([C@H](C)NC(=O)[C@@H]2C[C@@H](O)CN2C(=O)[C@@H](c2cc(OCCN3CC=C(CN4CCN5c6cc(-c7ccccc7O)nnc6NC[C@H]5C4)CC3)no2)C(C)C)cc1` [Example 90, (2S,4R)-4-hydroxy-1-((R)-2-(3-(2-(4-(((S)-2-(2-hydroxyphenyl)-5,6,6a,7,9,10-hexahydro-8H-pyrazino[1′,2′:4,5]pyrazino[2,3-c]pyridazin-8-yl)methyl)-3,6-dihydropyridin-1(2H)-yl)ethoxy)isoxazol-5-yl)-3-methylbutanoyl)-N-((S)-1-(4-(4-methylthiazol-5-yl)phenyl)ethyl)pyrrolidine-2-carboxamide]: on SMARCA2, the 50% degradation concentration (DC50) was less than 100 nM and the Dmax was more than 75%. Moreover, at SMARCA4, the DC50 was less than 100 nM and the Dmax was more than 75%.

For the molecule `Cc1ncsc1-c1ccc([C@H](C)NC(=O)[C@@H]2C[C@@H](O)CN2C(=O)[C@@H](c2cc(CCCN(C)CCN3CCN4c5cc(-c6ccccc6O)nnc5NC[C@H]4C3)no2)C(C)C)cc1` [Example 92, (2S,4R)-4-hydroxy-1-((R)-2-(3-(3-((2-((S)-2-(2-hydroxyphenyl)-5,6,6a,7,9,10-hexahydro-8H-pyrazino[1′,2′:4,5]pyrazino[2,3-c]pyridazin-8-yl)ethyl)(methyl)amino)propyl)isoxazol-5-yl)-3-methylbutanoyl)-N-((S)-1-(4-(4-methylthiazol-5-yl)phenyl)ethyl)pyrrolidine-2-carboxamide], the DC50 at SMARCA2 is less than 100 nM; at SMARCA4, not below 10000 nM. For the same molecule, the Dmax at SMARCA2 is more than 75%; at SMARCA4, not above 50%.

For the molecule `Cc1ncsc1-c1ccc([C@H](C)NC(=O)[C@@H]2C[C@@H](O)CN2C(=O)[C@@H](c2cc(OCCN3CC(O)C(N4CCN5c6cc(-c7ccccc7O)nnc6NC[C@H]5C4)C3)no2)C(C)C)cc1` (stereo partly drawn) [Example 93, (2S,4R)-4-hydroxy-1-((2R)-2-(3-(2-(3-hydroxy-4-((S)-2-(2-hydroxyphenyl)-5,6,6a,7,9,10-hexahydro-8H-pyrazino[1′,2′:4,5]pyrazino[2,3-c]pyridazin-8-yl)pyrrolidin-1-yl)ethoxy)isoxazol-5-yl)-3-methylbutanoyl)-N-((S)-1-(4-(4-methylthiazol-5-yl)phenyl)ethyl)pyrrolidine-2-carboxamide], at SMARCA2, the DC50 was less than 100 nM and the Dmax is more than 75%. On SMARCA4, the DC50 was less than 100 nM and the Dmax is more than 75%.

Consider `Cc1ncsc1-c1ccc([C@H](C)NC(=O)[C@@H]2C[C@@H](O)CN2C(=O)[C@@H](c2cc(OCCN3CCC(N4CCN5c6cc(-c7ccccc7O)nnc6NC[C@H]5C4)C(O)C3)no2)C(C)C)cc1` (stereo partly drawn) [Example 94, (2S,4R)-4-hydroxy-1-((2R)-2-(3-(2-(3-hydroxy-4-((S)-2-(2-hydroxyphenyl)-5,6,6a,7,9,10-hexahydro-8H-pyrazino[1′,2′:4,5]pyrazino[2,3-c]pyridazin-8-yl)piperidin-1-yl)ethoxy)isoxazol-5-yl)-3-methylbutanoyl)-N-((S)-1-(4-(4-methylthiazol-5-yl)phenyl)ethyl)pyrrolidine-2-carboxamide], for which the DC50 at SMARCA2 and at SMARCA4 was less than 100 nM each time. The Dmax on SMARCA2 and on SMARCA4 was more than 75% in each case.
